The values that follow come from patent publication US12194081B2, “ARGINASE1 polypeptides” (IO BIOTECH APS, priority 2018, dated 2025).

The subject of assay [1] is CD4+ and CD8+ memory T cells (CD45RO+). Kind of assay: ex vivo IFNγ ELISPOT of sorted memory T cells. Type of assay: cell-based, human. The procedure:
For in vitro ELISPOT, PBMCs from cancer patients and healthy donors were pulsed with 20 μM of Arginase 1-derived peptides and 120 U/ml IL-2 in 24-well plates for 7 days before being used in an ELISPOT assay. The cells were placed in 96-well nitrocellulose ELISPOT plates (MultiScreen MAIP N45; Millipore) pre-coated with IFNγ capture antibody (Mabtech). Arginase peptides added to a final concentration of 5 μM and plates incubated at 37° C. for 14-16 hours. After the incubation the cells were washed off and secondary biotinylated Ab (Mabtech, cat. 3420-6-1000) was added for 2 hours at room temperature. Unbound secondary antibody was washed off and streptavidin conjugated alkaline phosphatase (AP) (Mabtech, cat. 3310-10) was added for 1 hour at room temperature. Unbound conjugated enzyme was washed off and the assay was developed by adding BCIP/NBT substrate (Mabtech, cat. 3650-10). Developed ELISPOT plates were analyzed on CTL ImmunoSpot S6 Ultimate-V analyzer using Immunospot software v5.1. Responses were reported as the difference between average numbers of spots in wells stimulated with Arginase 1 and wells without added peptide.
CD4+ and CD8+ memory T cells were sorted from freshly thawed healthy donor or cancer patient PBMC samples using magnetic bead sorting kits: Memory CD4+ T Cell Isolation Kit, human (cat. 130-091-893, Miltenyi Biotec) and CD8+ Memory T Cell Isolation Kit, human (cat. 130-094-412, Miltenyi Biotec). The purity of isolated cells was assessed by staining for CD4-FITC, CD8-PerCP, CD45RO-PE (all from BD Biosciences), dead cells were stained using LIVE/DEAD™ Fixable Near-IR Dead Cell Stain Kit (Invitrogen™, ThermoFisher Scientific).
To test that CD4+ and CD8+ memory T cells were sorted from PBMCs of cancer patients and healthy donors that had shown a strong spontaneous immune response ex vivo. […] The purity of memory T cell isolation was confirmed by flow cytometric analysis for CD4+ CD45RO+ and CD8+ CD45RO+ T cells and was determined to be >95%. […] Clear CD8+ memory responses could be detected in 2 healthy donors (see FIG. 4C).

In assay [2] the test system is PBMCs stimulated with IL-4, IL-13 or IL-2. Kind of assay: IFNγ ELISPOT of PBMCs pre-stimulated with Th2 cytokine (IL-4/IL-13) or IL-2. Type of assay: cell-based, human. The source says:
To check for IL-4 induced Arg1 responses, PBMCs were stimulated with IL-4 (100 or 50 U/ml) and/or IL-2 (120 or 60 U/ml) for a week before being set up in the ELISPOT assay as described above.
The PBMCs were thawed and stimulated with IL-4, (50 U/ml or 100 U/ml), IL-2 (120 U/ml) or a combination of IL-4 and IL-2 (50 U/ml and 60 U/ml respectively) for one week before being tested in IFNγ ELISPOT for responses against ArgLong2. Non-stimulated cells were used as control.
Next, PBMCs from 2 cancer patients (BC30 (breast cancer), MM27 (malignant melanoma)) and 6 healthy donors that had previously shown strong spontaneous ex vivo responses against ArgLong2 were stimulated with either low dose IL-2 (120 U/ml) or IL-4 (100 U/ml) for 7 days. Non-stimulated cells were used as control. After 7 days in culture, PBMCs were tested for reactivity against ArgLong2 in IFNγ ELISPOT.
In a separate experiment, PBMCs from a healthy donor (HD22, known to have a pre-existing ex vivo response against ArgLong2) were treated with IL-4 (100 U/ml) or IL-13 (20 U/ml) for 7 days in order to increase presentation of the Arginase 1-derived peptides in the PBMC culture and thus stimulate the intrinsic ArgLong2 specific T cells present in the PBMCs. After 7 days of stimulation with IL-4 or IL-13, the PBMCs were analysed in IFNγ ELISPOT assay to check the changes in the frequency of the ArgLong2-specific T cells.

In a further assay the test system is C57BL/6 mice. Nature of the assay: Peptide vaccination of C57BL/6 mice, IFNγ ELISPOT of spleen and draining lymph node cells. The assay is classed as in vivo, mouse. The conditions noted are these: 100 μg peptide s.c. with Montanide ISA 51 VG; one vaccination; day 7; spleen and dLNs; FIG. 6. The procedure:
(§1) Animals were vaccinated subcutaneously with 100 μg peptide in DMSO/H2O in a 1:1 emulsion with incomplete Montanide ISA 51 VG. Montanide ISA 51 VG+DMSO/H2O served as a control vaccine. For subsequent analysis of the immune response to the ArgLong2 peptide, mice were sacrificed on day 7 and spleen and draining lymph nodes (dLNs) were harvested for ELISPOT setup.
Murine immune cells were subjected to ELISPOT analysis. Single cell suspension was prepared from spleen or dLNs by passage through a cell strainer. After lysis of red blood cells, 0.6-0.8×10^6 cells/well were seeded into ELISPOT plates coated with anti-IFNγ antibody. Peptide of interest was added to designated wells and cells were incubated overnight with peptide. The next day, cells were removed, plates washed and incubated with biotinylated detection antibody. Finally, after addition of Streptavidin-ALP and substrate visible spots appear. Each spot corresponds to an individual IFNγ producing cell. Plates were analysed in an Immunospot analyser and plotted.

The subject of assay [3] is MC38 colon adenocarcinoma. Kind of assay: Tumour vaccination, MC38 colon adenocarcinoma tumour model. Type of assay: in vivo, mouse. The conditions noted are these: 100 μg ArgLong2 with Montanide, days 0, 7, 14; p=0.030 Mixed effects analysis; FIG. 7. The protocol:
as §1
(§2) Each animal was inoculated subcutaneously into the right flank with 0.5×10^6 syngeneic tumour cells in 100 μl media. Both the syngeneic B16 F10 melanoma cells line and the syngeneic MC38 colon adenocarcinoma cell line were used. Vaccinations were initiated on day 0 and repeated once a week (day 7 and day 14). Peptide and control vaccinations were performed as described above.
(§3) Tumour growth was monitored and tumours were measured approximately every second day. Tumour volume was calculated at V [mm^3]=L×W^2/2 (where L is the longest diameter and W perpendicular to L). Maximum tumor size before mice were euthanized was 864 mm^3 (L=12 mm, W=12 mm).

A further assay relates to B16F10 melanoma. Nature of the assay: Tumour vaccination, B16F10 melanoma tumour model. Type of assay: in vivo, mouse. The conditions noted are these: 100 μg ArgLong2 with Montanide, days 0, 7, 14; FIG. 8. The protocol: as §1, §2, §3

As to “ISAKDIVYIGLRDVDPGEHYILKTLGIKYFSMTEVDRL (Peptide fragment of human Arginase 1 (ArgLong2)) [38-mer, positions 169-206 of full length human Arginase 1]”, the “cancer patients with CD4+ memory responses” value in assay [1] (sorted CD4+ CD45RO+ T cells from 2 cancer patients, FIG. 4B) is reported as 2 cancer patients. Also, the “healthy donors with CD4+ memory responses” value in assay [1] (sorted CD4+ CD45RO+ T cells from 4 healthy donors, FIG. 4B) is 3 healthy donors. Moreover, the “healthy donors with clear CD8+ memory responses” value in assay [1] (sorted CD8+ CD45RO+ T cells, FIG. 4C) was found to be 2 healthy donors. Moreover, the “ArgLong2 responses in IL-4 and IL-13 treated PBMC cultures” value in assay [2] (healthy donor HD22, IL-4 100 U/ml or IL-13 20 U/ml for 7 days, vs untreated control, FIG. 10) is on record as “Increased ArgLong2 responses”. In addition, in assay [2] (out of 8 cultures (2 cancer patients, 6 healthy donors), IL-4 100 U/ml for 7 days vs unstimulated and IL-2 stimulated controls, FIG. 5B), the “cultures with increased responses in IL-4 stimulated cultures” value is 6 cultures. Moreover, the “responses against ArgLong2 after IL-4 stimulation of PBMCs” value in assay [2] (single melanoma patient, IL-4 50 or 100 U/ml, IL-2 120 U/ml or IL-4+IL-2 for one week, compared with no stimulation or IL-2 alone, FIG. 5A) is reported as “Strong significant responses were seen in all IL-4 stimulated groups”. In the assay on C57BL/6 mice, the “immunogenicity in mice (vaccine-specific T cell responses, IFNγ ELISPOT)” value is “strongly immunogenic”. Further, the “tumour growth vs control vaccination, MC38” value in assay [3] was “significantly delay tumour growth”. Further, the “tumour growth vs control vaccination, B16” value in the assay with B16F10 melanoma was “significantly delay tumour growth”.
